Columns and labels:
[1] = target: T1, IRAK4 kinase (Homo sapiens, UniProt Q9NWZ3); assay: IRAK4 kinase activity test (KinEASE-STK HTRF kit); format: biochemical; conditions: IRAK4 kinase inhibition, 7 μM ATP, 37° C. 120 min
T1 sequence (Q9NWZ3 1-460): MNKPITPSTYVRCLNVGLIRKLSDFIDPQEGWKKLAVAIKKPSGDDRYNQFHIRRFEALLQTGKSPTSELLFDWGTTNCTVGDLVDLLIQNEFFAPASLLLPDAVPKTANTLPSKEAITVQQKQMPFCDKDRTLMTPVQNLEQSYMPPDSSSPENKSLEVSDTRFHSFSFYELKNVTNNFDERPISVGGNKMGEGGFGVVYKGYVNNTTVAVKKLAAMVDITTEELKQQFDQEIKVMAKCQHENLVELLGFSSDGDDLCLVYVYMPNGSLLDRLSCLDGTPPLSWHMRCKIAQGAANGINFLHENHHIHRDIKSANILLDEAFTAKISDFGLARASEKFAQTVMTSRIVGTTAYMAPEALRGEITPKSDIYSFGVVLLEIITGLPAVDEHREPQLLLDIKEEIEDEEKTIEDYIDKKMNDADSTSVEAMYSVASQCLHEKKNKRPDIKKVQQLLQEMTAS
Description: KinEASE-STK Si serine/threonine kinase kit (Cisbio) was used to detect the inhibitory effect of the compound on IRAK4 kinase activity. The specific method was: the compound was dissolved in dimethyl sulfoxide, and then it was diluted with the buffer solution of the kit by equal gradient to make the final concentration range of the tested compound in the reaction system 10000 nM-0.038 nM, then 2.5 nM kinase, 1 μM biotinylated polypeptide substrate and 7 μM adenosine triphosphate (ATP) were added in sequence and incubated at 37° C. for 120 min. Subsequently, anti-phosphorylated serine/threonine antibody coupled with europium element compound and modified XL665 streptavidin were added to the reaction system to terminate the reaction. After incubating at room temperature for 1 h, the fluorescence intensity of each well at the emission wavelength of 620 nm and 665 nm and the excitation wavelength of 337 nm was determined in HTRF mode on the microplate reader EnVision (PerkinElmer), the ratio value was calculated using the formula Ratio=(665 nm/620 nm)×10^4. By comparing with the fluorescence intensity ratio of the control group, the inhibition rate of the compound at each concentration was calculated, and then the IC50 value of the compound was obtained by fitting the nonlinear curve with the logarithmic concentration-inhibition rate by GraphPad Prism 7.

[2] = target: T2, IRAK4 kinase protein in THP-1 cells (Homo sapiens, UniProt Q9NWZ3); assay: Degradation of IRAK4 in THP-1 cells by Western Blot; format: cell-based; conditions: 24 hours
T2 construct: endogenous in cells; host or cells: THP-1 cells
T2 sequence (Q9NWZ3 1-460): T1 sequence (Q9NWZ3 1-460)
Description: Each well of the 24-well cell culture plate was inoculated with 0.95 mL THP-1 cells (stem cell bank of Chinese academy of sciences) with a cell density of 5×10^5 cells/well. The cell plate was placed in a 5% carbon dioxide incubator and cultured overnight at 37° C., then 50 μL compound in dimethyl sulfoxide was added. The final concentration of the compound was in the range of 1-3000 nM. After continuous cultivation for 24 hours, the cells were collected into a 1.5 mL centrifuge tube, centrifuged at 1000 rpm and 4° C. for 5 minutes. Cell precipitation was washed twice with 1×DPBS, resuspended cells were lysed with 200 μL lysate (cell lysate was Western and IP cell lysate (Beyotime), supplemented with 1 mM mixture of phenylmethylsulfonyl fluoride and protease inhibitor (Beyotime)), left on ice for 30 minutes, then centrifuged at 14000 g at 4° C. for 10 minutes, and the supernatant was taken to detect IRAK4 protein level by Western blot.
The total protein concentration in the supernatant of cell lysis was determined by BCA protein quantitative kit (Tiangen). According to the concentration of total protein detected by BCA, the supernatant was adjusted to […] with PBS and 5×SDS-PAGE protein loading buffer (Beyotime), bathed in water at 100° C. for 10 minutes, then placed in ice bath for 5 minutes, centrifuged at 14000 g and 4° C. for 5 minutes, and then collected as WB loading sample. Prefabricated glue (KeyGEN) was used for protein electrophoresis with a loading amount of 10 μL (total protein 2 μg). After Tris-MOPS-SDS electrophoresis solution (Adamas), 120V constant pressure electrophoresis was performed. After electrophoresis, the protein on the adhesive strip was transferred to PVDF membrane with a constant current of […] for 50 minutes. After the membrane was transferred, the membrane was added in 1×QuickBlock blocking buffer (Beyotime) and incubated for 30 minutes at room temperature. After blocking, PVDF membranes were incubated with IRAK4 primary antibody (Abcam) overnight at 4°, the membranes were washed with TBST buffer (2.4 g Tris, 8.8 g NaCl, 1.5 mL Tween 20, pH adjusted to 7.4, constant volume to 1 L) for 30 minutes, incubated with secondary antibody (Abcam) for 2 hours at room temperature, finally incubated with Clarity Western ECL Substrate (BIO-RAD) for 5 minutes for luminescence development, chemiluminescence imaging system (Clinx, chemiScope 6200 Touch) was used for development and protein mapping photography. The protein map was analyzed by Clinx chemiluminescence analysis software for grayscale values. Using the formula: grayscale correction value=(target protein grayscale value/corresponding internal reference grayscale value)×[…], the grayscale correction value of each sample was calculated. The degradation rate was calculated by comparing with the grayscale correction value of the control group. Furthermore, DC50 and Dmax values of the compound were obtained by the nonlinear curve fitting with the logarithmic concentration-inhibition rate by GraphPad Prism 7.

IC50 [1]: 55.7 nM
DC50 ([2]; IRAK4 degradation in THP-1 cells, read-out: WB DC50): 11.9 nM
Dmax ([2]; IRAK4 degradation in THP-1 cells, read-out: WB Dmax): 90.9%
WB D(%) (300 nM) ([2]; degradation percentage of IRAK4 in THP-1 cells, compound 300 nM): 89.5%
WB D(%) (1000 nM) ([2]; degradation percentage of IRAK4 in THP-1 cells, compound 1000 nM): 87.3%
SMILES: CC(C)(O)c1cc2nn(C3CCN(CCCC4CCN(c5ccc6c(c5)C(=O)N(C5CCC(=O)NC5=O)C6=O)CC4)CC3)cc2cc1NC(=O)c1cccc(C(F)(F)F)n1 (centres unmarked) [Example 6, N-(2-(1-(3-(1-(2-(2,6-dioxopiperidin-3-yl)-1,3-dioxoisoindolin-5-yl)piperidin-4-yl)propyl)piperidin-4-yl)-6-(2-hydroxyprop-2-yl)-2H-indazol-5-yl)-6-(trifluoromethyl) pyridinecarboxamide]
